ChEMBL document CHEMBL1201862, “PubChem BioAssay data set” (2004)
Activity calls are given as the source filed them.

Columns and labels:
[1] = target: Heat shock protein HSP 90-alpha (Homo sapiens, UniProt P07900); type: functional, organism-based
HEK293 = test: inhibitors of LMP1-driven NF-kB reporter, dose response, cell-based, HEK293, luciferase, cherry-pick (AID 588343); type: functional; details: Homo sapiens
[2] = cytotoxicity toward NIH3T3 fibroblasts, dose response, counter-screen, cell-based, ATP luminescence, mouse fibroblasts (AID 2010); type: functional;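 note: cells exposed to compound for about 90 hours before reading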
Streptococcus = test: Group A Streptococcus viability loss, dose response, counter-screen for streptokinase expression inhibitor project, luminescence, BacTiterGlo (AID 1915); type: functional, organism-based;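 note: potency for reduction of bacterial viability or growth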
[3] = test system: Streptococcus sp. 'group A'; test: growth inhibition of control SK(-) GAS strain, dose response, counter-screen for streptokinase expression inhibitor project, luminescence, kanamycin, BacTiterGlo, confirmation (AID 1900); type: functional, organism-based
Streptokinase A = target: T1, Streptokinase A (Streptococcus pyogenes serotype M1, UniProt P10520); test: S. pyogenes streptokinase expression inhibitors, potency, dose response, plasminogen activation absorbance, OD405 (AID 1914); type: functional, Streptococcus pyogenes M1 GAS;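 note: secreted streptokinase activity via plasminogen activation per viability signal from cell pellet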
T1 sequence (P10520 whole entry): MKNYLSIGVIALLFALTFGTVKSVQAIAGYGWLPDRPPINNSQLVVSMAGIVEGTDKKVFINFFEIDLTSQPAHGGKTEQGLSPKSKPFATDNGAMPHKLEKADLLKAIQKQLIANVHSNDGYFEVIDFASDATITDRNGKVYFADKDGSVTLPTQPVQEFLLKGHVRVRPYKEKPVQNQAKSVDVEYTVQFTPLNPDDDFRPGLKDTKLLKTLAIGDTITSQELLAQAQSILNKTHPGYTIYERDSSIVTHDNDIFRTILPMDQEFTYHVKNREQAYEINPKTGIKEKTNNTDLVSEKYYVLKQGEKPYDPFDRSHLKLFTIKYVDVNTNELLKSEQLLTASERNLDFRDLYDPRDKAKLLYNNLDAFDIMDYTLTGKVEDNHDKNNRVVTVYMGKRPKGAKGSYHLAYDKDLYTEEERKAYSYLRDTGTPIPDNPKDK

[4] = inhibitors of intracellular T. cruzi replication, confirmation, NIH3T3 host cells, beta-gal luminescence (AID 2044); type: functional, cell-based;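 note: intracellular parasites grown in NIH/3T3 mouse fibroblasts as host cells; luminescent beta-galactosidase reporter signal from transgenic T. cruzi replicating inside host cells; inhibitors lower the luminescence signal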
[5] = C. albicans growth with fluconazole, confirmation, fluorescence, retest (AID 2467); type: functional, cell-based
[6] = NIH-3T3 fibroblast cytotoxicity, dose response, cytotoxicity control, cell-based, fluorescence, Alamar Blue, secondary assay (AID 2327); type: functional;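 note: NIH-3T3 mouse fibroblasts cultured with fluconazole at 8 µg/mL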
[7] = target: T2, Microphthalmia-associated transcription factor (Homo sapiens, UniProt O75030); test: TRPM1 promoter luciferase signal decrease, dose response, MITF inhibitor project, cell-based, SK-MEL-5, cherry-picked, set 3 (AID 493073); type: functional
T2 sequence (O75030 whole entry): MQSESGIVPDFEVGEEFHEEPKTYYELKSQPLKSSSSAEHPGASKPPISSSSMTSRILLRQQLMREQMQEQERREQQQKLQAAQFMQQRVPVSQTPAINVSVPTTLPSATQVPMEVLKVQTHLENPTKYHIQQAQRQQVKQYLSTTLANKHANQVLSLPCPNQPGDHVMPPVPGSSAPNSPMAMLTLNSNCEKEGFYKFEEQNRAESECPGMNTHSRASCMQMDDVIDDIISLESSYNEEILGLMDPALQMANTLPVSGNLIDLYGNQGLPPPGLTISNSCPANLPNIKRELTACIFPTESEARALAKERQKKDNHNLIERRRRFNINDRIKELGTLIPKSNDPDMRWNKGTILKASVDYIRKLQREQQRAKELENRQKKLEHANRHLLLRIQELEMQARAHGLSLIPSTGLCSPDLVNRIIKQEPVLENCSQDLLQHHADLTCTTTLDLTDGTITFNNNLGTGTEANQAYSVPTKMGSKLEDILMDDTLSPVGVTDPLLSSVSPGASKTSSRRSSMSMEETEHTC

INS1 = test: beta cell apoptosis inhibitors, cytokine rescue, dose response, luminescence, retest (AID 449756); type: functional, cell-based; details: Rattus norvegicus;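 note: cell death triggered by IL-1 beta plus TNF-alpha plus IFN-gamma mixture; protective hits raise ATP signal compared with cytokine alone wells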
[8] = Luminescence Cell-Based Dose Response HTS to Identify Inhibitors of 5'UTR Stem-Loop Driven Prion Protein mRNA Translation in H4 Neuroglioblastoma Cells. [Related pubchem assays: 1827 (Project Summary), 1813 (Primary HTS)]; type: functional
[9] = inhibitors of SNCA 5'UTR-driven reporter translation, confirmation, H4 neuroglioma cells, luminescence (AID 1988); type: functional, cell-based
[10] = inhibitors of firefly luciferase expression or activity, dose response, H4 neuroglioma cells, luminescence (AID 1990); type: functional, cell-based
[11] = target: T3, Rac GTPase-activating protein 1 (Homo sapiens, UniProt Q9H0H5); test: MgcRacGAP GTPase-activating activity inhibitors, confirmation, biochemical, ADP Hunter fluorescence, primary and confirmatory (AID 624330); type: functional
T3 sequence (Q9H0H5 whole entry): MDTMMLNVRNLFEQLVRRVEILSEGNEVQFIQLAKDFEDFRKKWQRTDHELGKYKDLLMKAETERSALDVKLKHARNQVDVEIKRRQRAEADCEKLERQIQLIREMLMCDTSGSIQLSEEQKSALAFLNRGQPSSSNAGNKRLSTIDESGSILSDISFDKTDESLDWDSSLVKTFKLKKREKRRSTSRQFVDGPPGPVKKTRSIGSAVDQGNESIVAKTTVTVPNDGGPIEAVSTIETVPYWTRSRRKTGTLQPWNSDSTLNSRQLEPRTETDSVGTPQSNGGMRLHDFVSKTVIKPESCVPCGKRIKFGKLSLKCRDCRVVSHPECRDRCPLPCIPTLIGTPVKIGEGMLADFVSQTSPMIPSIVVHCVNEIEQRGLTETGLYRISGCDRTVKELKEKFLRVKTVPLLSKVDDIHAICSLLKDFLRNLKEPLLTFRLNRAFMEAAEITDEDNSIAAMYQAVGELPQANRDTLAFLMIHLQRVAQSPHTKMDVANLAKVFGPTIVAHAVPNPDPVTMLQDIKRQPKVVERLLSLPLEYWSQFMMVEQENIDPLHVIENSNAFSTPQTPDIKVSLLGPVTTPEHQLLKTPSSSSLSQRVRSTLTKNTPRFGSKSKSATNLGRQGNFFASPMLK

[12] = Luminescence Cell-Based Dose Response HTS to Identify Activators of Luciferase Translation or Activity in H4 […] Cells. [Related pubchem assays: 1829 (Project Summary), 1814 (Primary HTS)]; type: functional
H4 = test: Luminescence Cell-Based Dose Response HTS to Identify Activators of 5'UTR Stem-Loop Driven Prion Protein mRNA Translation in H4 Neuroglioblastoma Cells. [Related pubchem assays: 1829 (Project Summary), 1814 (Primary HTS)]; type: functional; details: Homo sapiens
[13] = Luminescence Cell-Based Dose Confirmation HTS to Identify Activators of 5'UTR Stem-Loop Driven Alpha-Synuclein mRNA Translation in H4 Neuroglioblastoma Cells. [Related pubchem assays: 1829 (Project Summary), 1814 (Primary HTS)]; type: functional
[14] = THP-1 cell cytotoxicity, dose response, cytotoxicity control for non-replicating M. tuberculosis project (AID 489025); type: functional
cells = type: functional
Cytochrome P450 3A4 = Cytochrome P450 3A4 (Homo sapiens, UniProt P08684);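 note: CYP3A4 tested as one member of a cytochrome P450 panel screen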
Cytochrome P450 3A4, sequence (P08684 whole entry): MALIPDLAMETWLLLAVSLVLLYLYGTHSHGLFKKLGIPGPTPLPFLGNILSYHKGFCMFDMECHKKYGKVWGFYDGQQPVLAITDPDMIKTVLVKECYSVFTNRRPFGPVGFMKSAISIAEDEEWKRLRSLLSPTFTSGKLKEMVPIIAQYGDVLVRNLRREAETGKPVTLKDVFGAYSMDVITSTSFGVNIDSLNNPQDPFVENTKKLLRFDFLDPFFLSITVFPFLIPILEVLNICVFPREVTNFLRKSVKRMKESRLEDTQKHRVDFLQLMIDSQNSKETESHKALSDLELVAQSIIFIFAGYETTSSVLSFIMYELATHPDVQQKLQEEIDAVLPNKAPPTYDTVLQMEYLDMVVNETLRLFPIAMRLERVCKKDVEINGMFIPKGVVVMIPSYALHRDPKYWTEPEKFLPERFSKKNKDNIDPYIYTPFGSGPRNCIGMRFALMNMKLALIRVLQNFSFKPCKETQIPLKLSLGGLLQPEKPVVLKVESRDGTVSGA

[15] = target: T4, Ubiquitin-conjugating enzyme E2 N (Homo sapiens, UniProt P61088); type: functional;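 note: Dose-response confirmation in a TR-FRET assay detecting UBC13-driven polyubiquitin chain formation, inhibition measured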
T4 sequence (P61088 whole entry): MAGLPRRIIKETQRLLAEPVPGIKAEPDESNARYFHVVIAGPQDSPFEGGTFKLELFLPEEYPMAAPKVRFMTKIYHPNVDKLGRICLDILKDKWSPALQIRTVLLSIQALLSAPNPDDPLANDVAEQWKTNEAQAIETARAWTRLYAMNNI

In the case of `Cc1c(OCC(=O)C(C)(C)C)ccc2c(-c3ccccc3)cc(=O)oc12`, the AC50 [1] is reported as 7.83 µM (active).

With `Oc1c(N=NC(S)=Nc2ccccc2F)c2ccccc2n1Cc1ccc(F)cc1` the AC50 (HEK293) was 4.02 µM (active), the EC50 [2] was 1.62 µM (active) and the EC50 (Streptococcus) was 17.8 µM (active). For the same compound, the EC50 [3] was 2.84 µM (active), the EC50 (Streptokinase A) was 0.607 µM (inconclusive) and the EC50 [4] was 1.06 µM (active).

In the case of `CC1(C(=O)N/N=C/c2ccc([N+](=O)[O-])o2)CC1(Br)Br` (configuration not stated), the EC50 [5] is reported as 2.46 µM (active), the EC50 [6] is reported as > 150 µM (inactive) and the AC50 [7] is reported as 10.3 µM (active).

In the case of `COc1ccc(C(=O)N/N=C/c2sc3ccccc3c2O)cc1`, the AC50 (INS1) is reported as 1.8 µM (active), the EC50 [8] is reported as 11 µM (active) and the AC50 [1] is reported as 2.68 µM (active). The EC50 [9] was 10.2 µM (active) and the EC50 [10] was 12.7 µM (active).

For `COc1ccc2cc(OCC(=O)NNC(=O)Nc3ccc(C(C)=O)cc3)ccc2c1`, the IC50 [11] was 239 µM (active), the EC50 [12] was 33.4 µM (active) and the EC50 (H4) was 20.3 µM (active). The EC50 [13] was 12.4 µM (active).

For `O=C(N/N=C/c1ccc(Br)s1)c1ccccc1[N+](=O)[O-]`, the CC50 [14] was > 40 µM (active), the IC50 (cells) was 49.2 µM (active) and the AC50 (Cytochrome P450 3A4) was 17.8 µM (inconclusive).

In the case of `COc1ccc(-c2cc(C(=O)N3CCN(c4ccccc4F)CC3)c3ccccc3n2)c(OC)c1`, the AC50 [1] is reported as 5.77 µM (active).

In the case of `O=C(Nc1ccc(N2CCOCC2)cc1)c1cnsn1`, the EC50 [8] is reported as 5.28 µM (active), the EC50 [9] is reported as 1.9 µM (active) and the EC50 [10] is reported as 3.19 µM (active). The AC50 [7] was 3.05 µM (active).

In the case of `CC1(c2nnc(Cc3ccccc3)o2)CC(c2ccccc2[N+](=O)[O-])=NO1` (configuration not stated), the AC50 [1] is reported as 1.59 µM (active).

In the case of `CC(C(=O)Nc1ccc(F)c(F)c1)N1CCN(C)CC1` (configuration not stated), the IC50 [11] is reported as 83.1 µM (active).

With `COc1cc2nc(=S)[nH]c(Nc3ccc(NC(C)=O)cc3)c2cc1OC` the IC50 [11] was 306 µM (active) and the IC50 [15] was > 20 µM (inactive).

For `O=C(NCCCCc1ccccc1)c1ccc(Br)cc1`, the AC50 [1] was 3.65 µM (active).

For `COc1ccc(CN2CCN(Cc3ccc(C(F)(F)F)cc3)CC2)cc1`, the IC50 [11] was 99.6 µM (active).

With `COc1cc(CNCc2ccccc2C(F)(F)F)cc(OC)c1` the IC50 [11] was 113 µM (active).

With `Cc1ccc(CCNc2ccc3ccccc3c2)cn1` the IC50 [11] was 105 µM (active).

In the case of `COc1cc(/C=C/C(=O)OCC(=O)N(C)Cc2ccccc2)ccc1O`, the IC50 [11] is reported as 35.2 µM (active).

In the case of `COc1ccc2c(c1)[C@H]1[C@H](CO2)[C@H](c2ccccc2)[C@]2(C)C(=O)Nc3ccc(C)cc3C(=O)N12`, the AC50 [1] is reported as 6.38 µM (active).

In the case of `Cc1ccc(-c2cs/c(=N\c3cccnc3)n2CCCn2ccnc2)cc1C`, the AC50 (HEK293) is reported as 6.59 µM (active), the EC50 [2] is reported as > 60 µM (not active) and the EC50 [4] is reported as 0.118 µM (active).

In the case of `O=C(O)c1ccc(C(=O)Nc2ccc(F)cc2)cc1`, the AC50 [7] is reported as 19.8 µM (active).

For `COc1ccccc1-c1sc2ccccc2c1-c1ccc(O)cc1`, the AC50 [1] was 5.22 µM (active).
